Data: ChEMBL document CHEMBL2074575, “Human organic anion transporting polypeptide-C (SLC21A6) is a major determinant of rifampin-mediated pregnane X receptor activation” (J Pharmacol Exp Ther, 2003)

Key:
Format in all cases: functional, cell-based
[1] = biological target: T1, Solute carrier organic anion transporter family member 1B1 (Homo sapiens, UniProt Q9Y6L6); assay: TP_TRANSPORTER: inhibition of E217betaG uptake (E217betaG: 0.5 uM, Nelfinavir: 10 uM) in OATP-C-expressing HeLa cells
T1 sequence (Q9Y6L6 whole entry): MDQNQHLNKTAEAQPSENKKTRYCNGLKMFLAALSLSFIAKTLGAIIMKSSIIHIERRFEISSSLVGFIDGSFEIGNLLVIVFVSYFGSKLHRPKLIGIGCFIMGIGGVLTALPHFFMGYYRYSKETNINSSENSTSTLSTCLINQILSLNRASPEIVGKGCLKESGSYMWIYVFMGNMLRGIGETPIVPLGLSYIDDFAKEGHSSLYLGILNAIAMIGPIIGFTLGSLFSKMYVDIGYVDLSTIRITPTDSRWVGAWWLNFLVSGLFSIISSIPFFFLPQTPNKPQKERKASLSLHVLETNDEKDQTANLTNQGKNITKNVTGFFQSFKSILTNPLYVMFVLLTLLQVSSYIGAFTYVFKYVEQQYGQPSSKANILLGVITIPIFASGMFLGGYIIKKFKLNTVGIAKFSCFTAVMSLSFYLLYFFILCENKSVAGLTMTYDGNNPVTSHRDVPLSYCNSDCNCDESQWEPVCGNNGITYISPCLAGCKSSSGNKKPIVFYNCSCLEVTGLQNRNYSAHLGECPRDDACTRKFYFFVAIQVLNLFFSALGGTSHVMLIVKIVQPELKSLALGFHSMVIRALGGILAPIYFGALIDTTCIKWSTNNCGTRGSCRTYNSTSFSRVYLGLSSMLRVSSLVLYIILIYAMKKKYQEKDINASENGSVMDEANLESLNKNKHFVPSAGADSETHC

[2] = biological target: T1, Solute carrier organic anion transporter family member 1B1; assay: TP_TRANSPORTER: inhibition of E217betaG uptake (E217betaG: 0.5 uM, BSP: 10 uM) in OATP-C-expressing HeLa cells
[3] = biological target: T1, Solute carrier organic anion transporter family member 1B1; assay: TP_TRANSPORTER: inhibition of E217betaG uptake (E217betaG: 0.5 uM, Indinavir: 10 uM) in OATP-C-expressing HeLa cells
[4] = biological target: T1, Solute carrier organic anion transporter family member 1B1; assay: TP_TRANSPORTER: inhibition of E217betaG uptake (E217betaG: 0.5 uM, Hyperforin: 10 uM) in OATP-C-expressing HeLa cells
[5] = biological target: T1, Solute carrier organic anion transporter family member 1B1; assay: TP_TRANSPORTER: inhibition of E217betaG uptake (E217betaG: 0.5 uM, Rifampicin: 10 uM) in OATP-C-expressing HeLa cells
[6] = biological target: T1, Solute carrier organic anion transporter family member 1B1; assay: TP_TRANSPORTER: inhibition of E217betaG uptake (E217betaG: 0.5 uM, Saquinavir: 100 uM) in OATP-C-expressing HeLa cells
[7] = substrate: CO[C@H]1/C=C/O[C@@]2(C)Oc3c(C)c(O)c4c(O)c(c(/C=N/N5CCN(C)CC5)c(O)c4c3C2=O)NC(=O)/C(C)=C\C=C\[C@H](C)[C@H](O)[C@@H](C)[C@@H](O)[C@@H](C)[C@H](OC(C)=O)[C@@H]1C; assay: TP_TRANSPORTER: uptake in OATP-C-expressing HeLa cells

Cc1c(O)cccc1C(=O)N[C@@H](CSc1ccccc1)[C@H](O)CN1C[C@H]2CCCC[C@H]2C[C@H]1C(=O)NC(C)(C)C was tested, and the Activity [1] was “inhibitor [(at a rough estimate) 15 % of control]”.

For O=C1OC(c2ccc(O)c(S(=O)(=O)[O-])c2)(c2ccc(O)c(S(=O)(=O)[O-])c2)c2c(Br)c(Br)c(Br)c(Br)c21.[Na+].[Na+] [SULFOBROMOPHTHALEIN SODIUM], the Activity [2] was “inhibitor [(at a rough estimate) <5 % of control]”.

For CC(C)(C)NC(=O)[C@@H]1CN(Cc2cccnc2)CCN1C[C@@H](O)C[C@@H](Cc1ccccc1)C(=O)N[C@H]1c2ccccc2C[C@H]1O.O, the Activity [3] was “inhibitor [(at a rough estimate) 35 % of control]”.

CC(C)=CCC[C@]1(C)[C@@H](CC=C(C)C)C[C@]2(CC=C(C)C)C(=O)C(CC=C(C)C)=C(O)[C@@]1(C(=O)C(C)C)C2=O was tested, and the Activity [4] was “inhibitor [(at a rough estimate) 10 % of control]”.

For CO[C@H]1/C=C/O[C@@]2(C)Oc3c(C)c(O)c4c(O)c(c(/C=N/N5CCN(C)CC5)c(O)c4c3C2=O)NC(=O)/C(C)=C\C=C\[C@H](C)[C@H](O)[C@@H](C)[C@@H](O)[C@@H](C)[C@H](OC(C)=O)[C@@H]1C [RIFAMPIN], the Activity [5] was “inhibitor [(at a rough estimate) 10 % of control]”.

With CC(C)(C)NC(=O)[C@@H]1C[C@@H]2CCCC[C@@H]2CN1C[C@@H](O)[C@H](Cc1ccccc1)NC(=O)[C@H](CC(N)=O)NC(=O)c1ccc2ccccc2n1 the Activity [6] was “inhibitor [(at a rough estimate) 10 % of control]”.

B1: Solute carrier organic anion transporter family member 1B1 (Homo sapiens) (protein)
chain: T1 sequence (Q9Y6L6 whole entry)
With B1 the Km [7] was 1.5 µM.
